From patent US12728099B2, “Formulation to deliver lipophilic active ingredients” (priority 2020, dated 2026)
Values after ≈ are worked out from the molar mass of the structure shown. Read-outs that look alike come from different tables or passages of the source.

Key:
[1] = Morphology by scanning electron / optical microscopy; assay type: physicochemical; conditions: SEM or optical microscope
Description: Morphologically, scanning electron microscopy (SEM) analyses of both forms were performed.

[2] = Particle size by light scattering; assay type: physicochemical
Description: The nanostructured PEA suspension obtained according to Example 1 was analyzed by light scattering to assess the size of the nanoparticles.

[3] = cited from earlier work
[4] = Dissolution rate in 1% aqueous sodium cholate solution (HPLC); assay type: physicochemical; conditions: 1% w/v sodium cholate, total 30 μg/mL
Description: Chromatogram recording was performed at 210 nm.

[5] = Solubility in different dissolution media (HPLC); conditions: 25 °C, thermodynamic from solid

CCCCCCCCCCCCCCCC(=O)NCCO [Raw PEA, Palmitoylethanolamide]
Morphology / obtainment of nanostructures [1]: irregular macroscopic agglomerates (a few tens of microns)
Size (nm ± SD) [2]: Macro and microscopic flakes
Solubility ([3]; methanol, ethanol, and isopropyl alcohol): poorly soluble
Solubility ([3]; water, oils, and most common organic solvents): practically insoluble
Dissolved PEA (dissolution rate) ([4]; 30 min): 3.31 ± 2.30 µg/mL
Dissolved PEA (dissolution rate) ([4]; 1 hour): 4.56 ± 1.02 µg/mL
Dissolved PEA (dissolution rate) ([4]; 2 hours): 6.15 ± 1.22 µg/mL
Dissolved PEA (dissolution rate) ([4]; 4 hours): 8.61 ± 0.68 µg/mL
Dissolved PEA (dissolution rate) ([4]; 6 hours): 9.31 ± 0.71 µg/mL
solubility at 24 h ([5]; demineralized water, water): < 0.1 µg/mL
solubility at 24 h ([5]; phosphate buffer, pH 7.4, aqueous buffer): 0.64 ± 0.05 µg/mL (≈ 2.14 µM)
solubility at 24 h ([5]; simulated intestinal fluid, pH 6.8, fassgf or other biorelevant): 0.22 ± 0.03 µg/mL (≈ 0.735 µM)
solubility at 24 h ([5]; simulated pulmonary fluid, pH 7.4, fassgf or other biorelevant): 0.8 ± 0.12 µg/mL (≈ 2.67 µM)
